Results as given in US20130053245A1, “Method and Substance for Promoting Plant Growth” (World Grow International Corp., priority 2009, published 2013).

Tested on: baby corn seeds
Experiment: root length developed on baby corn seeds after treatment with homeopathic growth stimulant
Format: in vivo
Experimental: The length of roots that developed on the baby corn seeds, after treatment of the seeds with various concentrations of homeopathic growth stimulant, was measured. […] This critical transition indicates a fundamental difference in the chemical structure of the resulting plant enhancement substance by molecular cloistering. The criticality and creation of a chemically different substance brought about by dilution is indicated by the synergy of combining the resulting dilution medium and dissolved homeopathic growth stimulant with a nutrient source such as a fertilizer. This synergy is evidenced by the multiplication of growth increase in target plants resulting from the combination. […] However, treatment of a target plant using a combination of dilution medium and dissolved homeopathic growth stimulant along with a nutrient source increases plant growth tenfold.

O.O.O.O.O.O=S(=O)([O-])[O-].[Cu+2] [CuSO4, copper sulfate pentahydrate (CuSO4.5H2O)]
root development (high concentration): arrests root development | root growth (length of roots) (higher concentrations of CuSO4 in the homeopathic growth stimulant): arrest root growth | root growth (homeopathic concentration (3-12X potency)): acts as a root growth enhancer | root growth (length of roots) (lower concentrations of CuSO4, below the homeopathic barrier or threshold concentration): enhance root growth
